Measurements reported in patent US9089565B2, “Compositions and methods for causing neurite outgrowth” (MEDICAL RESEARCH COUNCIL, priority 2009, dated 2015).

Tested on: DRG neurons from postnatal day 5 rats
Experiment: Neurite outgrowth assay, DRG neurons with myelin-associated inhibitors
Format: cell-based, rat
Conditions: 24 hours
Description: FIG. 5. CK2 rescues postnatal rat neurones from inhibition of neurite outgrowth by the myelin-associated inhibitors, Nogo, MAG and OMgp. (A) DRG neurones from postnatal day 5 rats were cultured with or without the Nogo-66 fragment in the presence of the indicated reagents. After 24 hours from addition of the indicated reagents, cells were fixed and ã-tubulin III was detected by immunofluorescence. (B) The number of cells extending neurites of more than 20 μm and total ã-tubulin III positive cell number were counted from images taken in (A). The population of cells extending neurite-like structures of more than 20 μm was indicated as a percentage of total cell number. An average of three experiments is shown. Error bars indicate S. E. between experiments. Data were analysed with student's t test. […] (E) The number of cells extending neurites of more than 20 μm and total ã-tubulin III positive cell number were counted from images taken in (C and D). […] Cells were fixed and ã-tubulin III was detected by immunofluorescence. […] Over-expressed NgR1-Myc was detected by immunofluorescence. (H) The number of Myc-positive cells extending neurites of more than 20 μm and total Myc-positive cell number were counted from images taken in (G). […]

Molecule: Nc1ncnc2c1ncn2[C@@H]1O[C@H](COP(=O)(O)OP(=O)(O)OP(=O)(O)O)[C@@H](O)[C@H]1O [ATP]
- neurite outgrowth in the presence of the Nogo-66 fragment: did not suppress

B1: BDNF: brain-derived neurotrophic factor, member of the neurotrophin nerve growth factor family, purchased from Merck (protein, UniProt P23560 19-247, looked up)
Neurotrophic factor BDNF …: APMKEANIRGQGGLAYPGVRTHGTLESVNGPKAGSRGLTSLADTFEHVIEELLDEDQKVRPNEENNKDADLYTSRVMLSSQVPLEPPLLFLLEEYKNYLDAANMSMRVRRHSDPARRGELSVCDSISEWVTAADKKTAVDMSGGTVTVLEKVPVSKGQLKQYFYETKCNPMGYTKEGCRGIDKRHWNSQCRTTQSYVRALTMDSKKRIGWRFIRIDTSCVCTLTIKRGR
- neurite outgrowth in the presence of the Nogo-66 fragment: fails to block
